Source: patent publication US20070122377A1, “Compositions and methods of treatment” (priority 2003, published 2007)

Legend:
U937 cells [1] = experiment: Release of IL-10 protein from U937 monocytes in response to PGE and GMCSF (Example 3, FIG. 4); type: cell-based, human
Description: Cells were treated for 4 hours with the agents indicated below the graph, washed to remove the treatment and incubated for a further 20 hours before the medium was assayed for IL-10. PGE refers to prostaglandin E2, and GM refers to GMCSF.
U937 cells were grown in RPMI (PAA Laboratories) medium with 10% foetal calf serum (PAA Laboratories) added.

U937 cells [2] = experiment: IL-10 ELISA in U937 cells, prostaglandins in presence and absence of rolipram (Examples 5 and 6, FIGS. 7 and 8); type: cell-based, human
Description: U 937 cells were grown in RPP (PAA Laboratories) medium with 10% fetal calf serum added (PAA Laboratories). 2×10^6 cells per flask were treated with prostaglandin E2 at 10^−6 Molar or with Rolipram (4×10^−6) for 24 hours. Medium was removed at 20 hours and analysed by ELISA. A capture antibody (Pharmingen) was coated onto 96 well plates and culture medium was added each well. A standard curve was created with recombinant IL-10 protein. After incubation and washing, a biotin labelled monoclonal antibody (Pharmingen) was added and following incubation and washing, peroxidase labelled streptavidin was added. After washing a tetramethyl benzidine substrate was added and colour developed in proportion to IL-10 in the original sample/standard. Colour was read using a plate photometer (Labsystems, Multiskan). Mean concentrations (N=3) in controls with no lipopolysaccharide (LPS) were 38.2 pg/ml and in the presence of LPS (100 nM) they were 43.9 […].
The effect of PGE1, PGE2, 19 hydroxy PGE1 and 19 hydroxy PGE2 on the stimulation of IL-10 in the presence and absence of rolipram was investigated as described above in Example 5. IL-10 levels were measured using an ELISA assay (R&D Ltd, Oxford). Measurement was performed according to the manufacturer's instructions.

U937 cells [3] = experiment: phosphodiesterase IV-b mRNA in U937 cells (Example 7, FIG. 9); type: cell-based, human; details: four hours of incubation; PGE 1×10^-6, 19-hydroxy PGE2 5×10^-6
Description: After the incubation (20 hours), cells were pelleted and the mRNA was extracted with Tri-reagent (Sigma, Poole, UK). Total RNA was obtained by addition of chloroform and subsequent isopropanol precipitation. RNA was reverse transcribed with reverse transcriptase (Applied Biosystems) and random hexamers (Applied Biosystems). Probes and primers for IL-10 and IL-12 (p35) were designed using Primer Express (Applied Biosystems) and were as follows:
Template was amplified in a Taqman 7700 machine for 40 cycles using FAM/TAMRA dyes on the probe. The Applied Biosystems kit was used to amplify and detect ribosomal (18S) RNA (using VIC/TAMRA dyes) as an internal control in the same reaction tube. After 40 cycles the Ct (related to cycle number at which signal appears) for the FAM and the 18S (VIC) were recorded and […] relative quantitation was achieved using the formula 2^−ΔΔCt where Δ refers to the difference between the FAM and VIC signal related to an standard comparator included in each run.
The mRNA for phosphodiesterase IV-b was measured as described in Example 5 above. mRNA was extracted after four hours of incubation. The concentration of the PGE was 1×10^−6 and that of the 19-hydroxy PGE2 was 5×10^−6. The following primers and Taqman probe were used for quantitation of PDE IV b mRNA.

U937 cells [4] = experiment: IL-10 and TNFα mRNA in U937 cells after differentiating agents (Example 9, FIG. 13); type: cell-based, human
Description: U937 (human monocyte cell line) cells were grown in RPMI (PAA Laboratories) medium with 10% fetal calf serum added (PAA Laboratories). Cells were treated with prostaglandin E2 at 10^−6 Molar, Rolipram 10^−6 Molar, Forskolin 50×10^−6 Molar with or without GMCSF at 5 ng/ml for 48 hours. Cells were pelleted and the mRNA was extracted with Tri reagent (Sigma, Poole, UK). Total RNA was obtained by addition of chloroform and subsequent isopropanol precipitation. RNA was reverse transcribed with reverse transcriptase (Applied Biosystems) and random hexamers (Applied Biosystems). Probes and primers for amplification and detection of IL-10 were designed using Primer Express (Applied Biosystems) and are as follows:
As for Example 4 but MRNA for TNFα is also included.
Data is shown as the ratio of IL-10 mRNA/TNFα mRNA. P=PMA=Phorbol myristoyl acetate; F=Fsk=Forskolin g=GMCSF, C=vehicle control.

PDE = details: non-specific PDE inhibitor; cited from earlier work
type IV PDE = details: cited from earlier work; for IC50: type IV PDE selective inhibitor
[5] = cited from earlier work

Molecule: CCCCC[C@H](O)/C=C/[C@H]1[C@H](O)CC(=O)[C@@H]1C/C=C\CCCC(=O)O [PGE, prostaglandin E2]
- stimulation of IL-10 in the presence of GMCSF (U937 cells [1]): increased strikingly
- stimulation of IL-10 in the presence of a PDE inhibitor (U937 cells [2]): increased strikingly
- PDE activity / PDE message (phosphodiesterase IV-b mRNA) (U937 cells [3]): increase

Molecule: 19-hydroxy PGE2
- stimulation of IL-10 in the presence of GMCSF (U937 cells [1]): increased strikingly
- stimulation of IL-10 in the presence of a PDE inhibitor (U937 cells [2]): increased strikingly
- PDE activity / PDE message (phosphodiesterase IV-b mRNA) (U937 cells [3]): increase

Molecule: CCCCCCCCCCCCCC(=O)O[C@@H]1[C@@H](C)[C@@]2(O)[C@@H](C=C(CO)C[C@]3(O)C(=O)C(C)=C[C@@H]23)[C@@H]2C(C)(C)[C@]12OC(C)=O [PMA, Phorbol myristoyl acetate]
- IL-10 mRNA (U937 cells [4]; PMA 2×10^-7 M as differentiating agent): increased
- TNFα mRNA (U937 cells [4]; differentiation with the agent): increased

Molecule: CC(C)Cn1c(=O)n(C)c(=O)c2[nH]cnc21 [IBMX, 3-isobutyl-1-methylxanthine]
- IC50 (PDE): 2000 to 50000 nM

Molecule: Cn1c(=O)c2[nH]cnc2n(C)c1=O [theophylline]
- times less effective than rolipram (type IV PDE; non-selective inhibitor compared with type IV selective rolipram): 30 times

Molecule: CCCCOc1cc(CC2CNC(=O)N2)ccc1OC (stereo not shown) [Ro-20-1724, 4-[3-butoxy-4-methoxybenzyl]-2-imidazolidinone]
- IC50 (type IV PDE): 2000 nM

Molecule: COc1ccc(C2CNC(=O)C2)cc1OC1CCCC1 (stereo not shown) [rolipram, 4-[3-cyclopentyloxy-4-methoxyphenyl]-2-pyrrolidinone]
- IC50 (type IV PDE): 800 nM

B1: GM-CSF: Murine Granulocyte macrophage colony stimulating factor from Peprotech, catalog number 315-03 (protein, UniProt P01587 18-141, looked up)
Granulocyte-macrophage …: APTRSPITVTRPWKHVEAIKEALNLLDDMPVTLNEEVEVVSNEFSFKKLTCVQTRLKIFEQGLRGNFTKLKGALNMTASYYQTYCPPTPETDCETQVTTYADFIDSLKTFLTDIPFECKKPGQK
- solubility in aqueous solution [5]: Freely soluble
